The source of these data is paper PMC3527734, “Peripheral injections of melanin-concentrating hormone receptor 1 antagonist S38151 decrease food intake and body weight in rodent obesity models” (Frontiers in Endocrinology, 2012).

Each structure is given as a SMILES string. Where two headings read alike, the source gives them in different places. Where a SMILES comes first, the peptide text is derived from it.

The subject of one data set is Zucker fa/fa rats. In words: acute i.p. administration, food intake in fasted rats. The data set is classed as in vivo, rat. The settings on record: S38151 30 mg/kg i.p. The method, then:
Zucker fa/fa rats were habituated in the same conditions as Wistar rats (described in section “Acute Central Peptide Administration and Feeding Studies in Wistar Rats”). At 09:00 on the day of study, after fasting for 24 h, either vehicle (normal saline) or S38151 [30 mg/kg (20 μmol/kg)] was administered intraperitoneally (i.p.).
Figure 6 The effect of S38151 on food intake in Zucker fa/fa rats after acute peripheral administration. Rats were fasted for 24 h, and then injected (i.p.) at the beginning of the light phase with vehicle (normal saline) or 30 mg/kg S38151. Cumulative food intake was measured 1, 2, 4, 6, and 24 h after injection. Results are expressed as mean ± SEM (n = 16 rats per group).

For the next data set, the target named is MCH1. The settings on record: ref Audinot et al., 2009, cited from earlier work; for Kb: full antagonist, CHO cells over-expressing MCH1. The text has this:
S38151 was synthesized during a process that was attempting to find peptides or pseudopeptides with affinity at MCH1 receptor that also had greater stability in biological media. This pseudopeptide is derived from another, very similar agonist, pGua (MCH7-17) (Audinot et al., [2001a], [2009]). […] This activity was specific to MCH1, since it ...

A short description of data set [1]: detection of compound in brain of treated animals. The data set is classed as in vivo. The settings on record: brains from S38151-treated (i.p.-injected) animals, LC-MS/MS, data not shown. The method, then:
First, S38151 was incubated for 16 h at 4°C and 37°C in mouse plasma or in TRIS buffer (pH 7.4). Next, plasma proteins were precipitated with two volumes of acetonitrile. After centrifugation and dilution with a water/acetonitrile mixture (50/50 v/v), the supernatant was injected onto a triple quadripole mass spectrometer (Ultima, Micromass WATERS Corporation, Milford, USA). The liquid chromatographic system consisted of an Agilent 1100 analytic pump (Agilent, Santa Clara, USA) equipped with an Alpha Mos CTC autosampler (Alpha Mos, Toulouse, France). Mass detection was performed using the m/z transition 743.5 > 163, in positive electrospray. A second stability study was performed at a lower concentration (1 μM) and for 4 h, with the following sampling times: 0, 15, 45, 90, and 240 min. At each sampling time, 50 μL of plasma were precipitated with two volumes of acetonitrile, and after centrifugation were directly injected onto the LC-MS/MS system. The same treatment was used for the buffer samples.
Furthermore, we were unable to detect traces of this pseudopeptide in the brains of i.p.-injected animals. Similarly, its effect could not be correlated with aversion owing to a bad test.

For another data set, the system named is MCH1-KO mice. In words: daily i.p. S38151 in MCH1-KO mice. It counts as in vivo, mouse. On the procedure: In these studies, 13-week-old female C57BL/6J, ob/ob, and MCH1-KO mice were used. The mice were maintained on a 12-h light/dark cycle (lights on at 07:30 and off at 19:30) at 22 ± 3°C, and supplied with food pellets (6 mm diameter A03, UAR Laboratory chow, Epinay Villemuisson France) and tap water ad libitum. To induce obesity in C57BL/6J (creating diet-induced obese, or DIO, mice), mice were fed a high-fat diet (60 kcal% fat, 20 kcal% protein, 20 kcal% carbohydrate, ref D12492 from Research Diets, New Brunswick, NJ08901, USA) for 8 weeks starting at 4 weeks of age. In these experiments, DIO mice, ob/ob mice, and MCH^−/−1 mice were individually housed in a modular chamber that was placed on an activity platform to concurrently measure the food intake, water intake, and activity of the mice (ADDENFI, Les Cordeliers, Paris, France). For at least 2 weeks before experimentation, mice were habituated to a diet of 6 mm diameter food pellets of the following composition: 67.5% food flour, 26.5% sucrose, 5% gum tragacanth, 1.25% magnesium stearate (A03 UAR, Orge, France), and to i.p. injection. After this habituation period, food intake, drink intake, and body weight were measured for 3 consecutive days. The mice were randomized into three groups based on their food and water intake over the three preceding 24-h periods, and on their body weight. Next, the quantity of food eaten over each 24-h period during the 5 days of i.p. treatment with S38151 [10 and 30 mg/kg/day (7 and 20 μmol/kg/day)] or vehicle was determined and corrected for spillage.
Figure 10 The effects of repeated daily S38151 injection on food and water intake, body weight, and motility in MCHR1-KO mice. MCH1-KO mice were administered S38151 (10 and 30 mg/kg, i.p.) or vehicle (normal saline i.p.) for 5 consecutive days. Results are expressed as mean ± SEM (n = 8 mice per group).

The mark [2] stands for this setting: S38151 10 and 30 mg/kg i.p. daily for 5 days, n = 8.

One may read the Ki as the dissociation constant of the complex between target and ligand, obtained from inhibition or displacement. As a reminder, the Kb is the affinity of an antagonist, worked out from how it opposes an agonist. As for `CSCC[C@@H]1NC(=O)[C@@H](NC(=O)c2ccc(NC(=N)N)cc2)CSSC[C@@H](C(=O)N[C@@H](Cc2c[nH]c3ccccc23)C(=O)O)NC(=O)[C@@H]2CCCN2C(=O)[C@H](CCCNC(=N)N)NC(=O)[C@H](Cc2ccc(O)cc2)NC(=O)[C@H](C(C)C)NC(=O)[C@H](CCCNC(=N)N)NC(=O)[C@H](CC(C)C)NC1=O` [S38151, p-guanidinobenzoyl-(Des-Gly10)-MCH (7–17)] (HELM PEPTIDE1{[N=C(N)Nc1ccc(C(=O)[*:2])cc1].C.M.L.R.V.Y.R.P.C.W}$PEPTIDE1,PEPTIDE1,2:R3-10:R3$$$V2.0; C-terminus assumed), the “food intake, first hour” value in the data set on Zucker fa/fa rats (24-h fasted Zucker fa/fa rats, control 3.6 ± 0.4 g, mean ± SEM, n = 16) is on record as 0.09 ± 0.06 g. In addition, the “inhibition of food consumption within 1 h” value with Zucker fa/fa rats (Zucker fa/fa rats) is “complete inhibition”. Moreover, the “decrease in food intake up to 24 h after drug administration” value in the data set on Zucker fa/fa rats (cumulative food intake versus control) was “maintained statistical significance”. In addition, the Ki on MCH1 ([125I]-S36057 binding, Chinese hamster ovary cells over-expressing MCH1) is 80 nM. In addition, the Kb in the data set on MCH1 (read-out: KB, GTPγS binding assay) is 4.3 nM. For the same compound, in the data set on MCH1 (read-out: KB, calcium flux assay), the Kb is 210 nM. The “amount of compound detectable in the brain” value in data set [1] was “none was detected”. For the same compound, in the data set on MCH1-KO mice (S38151 30 mg/kg (20 μmol/kg/day) i.p. daily for 5 days), the motility entry is on record as “significant reduction”. In the data set with MCH1-KO mice (setting [2]), the body weight entry is given as “did not induce any significant effects”, the drink intake result is reported as “did not induce any significant effects” and the food intake entry is reported as “did not induce any significant effects”.
